{"source": "paper PMC12454493", "about": "“Insight on novel sulfamoylphenyl pyrazole derivatives as anticancer carbonic anhydrase inhibitors” (Molecular Diversity, 2024)", "key": {"HCT-15": {"tested_on": "HCT-15", "test": "NCI-60 one-dose SRB screen (Colon Cancer)", "format": "cell-based", "conditions": "Homo sapiens, single dose 10 µM, 48 h, read-out: Growth inhibition percent (GI %)", "method": "(§1) The National Cancer Institute (NCI) Developmental Therapeutic Program (www.dtp.nci.nih.gov) selected the 20 novel synthesized compounds 4a-e, 5a-e, 6a-c, 9a-e, 10 and 11 to test for their anticancer activity at a single dose of 10 µM using SRB assay. […] Supplementary Data S3; Table S1 presents the detailed screening results of the most promising compounds. The preliminary screening’s detailed results for the remaining compounds are elucidated in the (Supplementary Data S3; Table S2).\n(§2) The guidelines of the Drug Evaluation Branch’s protocol at the NCI in Bethesda served as the basis for the in vitro anticancer screening assays. at one dose 10 µM against a panel of 60 cancer cell lines. The human tumor cell lines used belonged to nine panels: leukemia, melanoma, lung, colon, CNS, ovarian, renal, prostate and breast cancers using the sulforhodamine B (SRB) assay in a 48 h drug exposure protocol."}, "hCA XII": {"target": "hCA XII (Homo sapiens, UniProt O43570)", "sequence (O43570 25-354)": "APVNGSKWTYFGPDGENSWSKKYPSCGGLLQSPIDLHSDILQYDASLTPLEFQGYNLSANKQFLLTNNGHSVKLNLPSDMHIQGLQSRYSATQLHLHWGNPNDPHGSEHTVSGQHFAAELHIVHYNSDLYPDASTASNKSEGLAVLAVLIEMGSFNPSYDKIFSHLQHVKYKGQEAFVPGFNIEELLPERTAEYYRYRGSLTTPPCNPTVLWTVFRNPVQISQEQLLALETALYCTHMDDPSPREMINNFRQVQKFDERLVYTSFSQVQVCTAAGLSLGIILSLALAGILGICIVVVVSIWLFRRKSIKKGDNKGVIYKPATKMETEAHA", "test": "CA inhibitory activity, spectrophotometric p-NPA assay", "format": "biochemical", "conditions": "p-NPA substrate, pH 7.5, 25 °C, triplicate; read-out: IC50 (µM) ± SD hCA XII"}, "HS 578T": {"tested_on": "HS 578T", "test": "NCI-60 one-dose SRB screen (Breast Cancer)", "format": "cell-based", "conditions": "Homo sapiens, single dose 10 µM, 48 h, read-out: Growth inhibition percent (GI %)", "method": "as §1, §2"}, "MDA-MB-468": {"tested_on": "MDA-MB-468", "test": "NCI-60 one-dose SRB screen (Breast Cancer)", "format": "cell-based", "conditions": "Homo sapiens, single dose 10 µM, 48 h, read-out: Growth inhibition percent (GI %)", "method": "as §1, §2"}, "BT-549": {"tested_on": "BT-549", "test": "NCI-60 one-dose SRB screen (Breast Cancer)", "format": "cell-based", "conditions": "Homo sapiens, single dose 10 µM, 48 h, read-out: Growth inhibition percent (GI %)", "method": "as §1, §2"}, "MDA-MB-231/ATCC": {"tested_on": "MDA-MB-231/ATCC", "test": "NCI-60 one-dose SRB screen (Breast Cancer)", "format": "cell-based", "conditions": "Homo sapiens, single dose 10 µM, 48 h, read-out: Growth inhibition percent (GI %)", "method": "as §1, §2"}, "MCF-7": {"tested_on": "MCF-7", "test": "NCI-60 one-dose SRB screen (Breast Cancer)", "format": "cell-based", "conditions": "Homo sapiens, MCF7, single dose 10 µM, 48 h, read-out: Growth inhibition percent (GI %)", "method": "as §1, §2"}, "T-47D": {"tested_on": "T-47D", "test": "NCI-60 one-dose SRB screen (Breast Cancer)", "format": "cell-based", "conditions": "Homo sapiens, T47D, single dose 10 µM, 48 h, read-out: Growth inhibition percent (GI %)", "method": "as §1, §2"}, "ACHN": {"tested_on": "ACHN", "test": "NCI-60 one-dose SRB screen (Renal Cancer)", "format": "cell-based", "conditions": "Homo sapiens, single dose 10 µM, 48 h, read-out: Growth inhibition percent (GI %)", "method": "as §1, §2"}, "CAKI-1": {"tested_on": "CAKI-1", "test": "NCI-60 one-dose SRB screen (Renal Cancer)", "format": "cell-based", "conditions": "Homo sapiens, single dose 10 µM, 48 h, read-out: Growth inhibition percent (GI %)", "method": "as §1, §2"}, "RXF 393": {"tested_on": "RXF 393", "test": "NCI-60 one-dose SRB screen (Renal Cancer)", "format": "cell-based", "conditions": "Homo sapiens, single dose 10 µM, 48 h, read-out: Growth inhibition percent (GI %)", "method": "as §1, §2"}, "TK-10": {"tested_on": "TK-10", "test": "NCI-60 one-dose SRB screen (Renal Cancer)", "format": "cell-based", "conditions": "Homo sapiens, single dose 10 µM, 48 h, read-out: Growth inhibition percent (GI %)", "method": "as §1, §2"}, "786-0": {"tested_on": "786-0", "test": "NCI-60 one-dose SRB screen (Renal Cancer)", "format": "cell-based", "conditions": "Homo sapiens, single dose 10 µM, 48 h, read-out: Growth inhibition percent (GI %)", "method": "as §1, §2"}, "UO-31": {"tested_on": "UO-31", "test": "NCI-60 one-dose SRB screen (Renal Cancer)", "format": "cell-based", "conditions": "Homo sapiens, single dose 10 µM, 48 h, read-out: Growth inhibition percent (GI %)", "method": "as §1, §2"}, "A498": {"tested_on": "A498", "test": "NCI-60 one-dose SRB screen (Renal Cancer)", "format": "cell-based", "conditions": "Homo sapiens, single dose 10 µM, 48 h, read-out: Growth inhibition percent (GI %)", "method": "as §1, §2"}, "DU-145": {"tested_on": "DU-145", "test": "NCI-60 one-dose SRB screen (Prostate Cancer)", "format": "cell-based", "conditions": "Homo sapiens, single dose 10 µM, 48 h, read-out: Growth inhibition percent (GI %)", "method": "as §1, §2"}, "PC-3": {"tested_on": "PC-3", "test": "NCI-60 one-dose SRB screen (Prostate Cancer)", "format": "cell-based", "conditions": "Homo sapiens, single dose 10 µM, 48 h, read-out: Growth inhibition percent (GI %)", "method": "as §1, §2"}, "OVCAR-8": {"tested_on": "OVCAR-8", "test": "NCI-60 one-dose SRB screen (Ovarian cancer)", "format": "cell-based", "conditions": "Homo sapiens, single dose 10 µM, 48 h, read-out: Growth inhibition percent (GI %)", "method": "as §1, §2"}, "NCI/ADR-RES": {"tested_on": "NCI/ADR-RES", "test": "NCI-60 one-dose SRB screen (Ovarian cancer)", "format": "cell-based", "conditions": "Homo sapiens, single dose 10 µM, 48 h, read-out: Growth inhibition percent (GI %)", "method": "as §1, §2"}, "SK-OV-3": {"tested_on": "SK-OV-3", "test": "NCI-60 one-dose SRB screen (Ovarian cancer)", "format": "cell-based", "conditions": "Homo sapiens, single dose 10 µM, 48 h, read-out: Growth inhibition percent (GI %)", "method": "as §1, §2"}, "OVCAR-5": {"tested_on": "OVCAR-5", "test": "NCI-60 one-dose SRB screen (Ovarian cancer)", "format": "cell-based", "conditions": "Homo sapiens, single dose 10 µM, 48 h, read-out: Growth inhibition percent (GI %)", "method": "as §1, §2"}, "IGROV1": {"tested_on": "IGROV1", "test": "NCI-60 one-dose SRB screen (Ovarian cancer)", "format": "cell-based", "conditions": "Homo sapiens, IGROV-1, single dose 10 µM, 48 h, read-out: Growth inhibition percent (GI %)", "method": "as §1, §2"}, "OVCAR-3": {"tested_on": "OVCAR-3", "test": "NCI-60 one-dose SRB screen (Ovarian cancer)", "format": "cell-based", "conditions": "Homo sapiens, single dose 10 µM, 48 h, read-out: Growth inhibition percent (GI %)", "method": "as §1, §2"}, "OVCAR-4": {"tested_on": "OVCAR-4", "test": "NCI-60 one-dose SRB screen (Ovarian cancer)", "format": "cell-based", "conditions": "Homo sapiens, single dose 10 µM, 48 h, read-out: Growth inhibition percent (GI %)", "method": "as §1, §2"}, "RPMI-8226": {"tested_on": "RPMI-8226", "test": "NCI-60 one-dose SRB screen (Leukemia)", "format": "cell-based", "conditions": "Homo sapiens, single dose 10 µM, 48 h, read-out: Growth inhibition percent (GI %)", "method": "as §1, §2"}, "CCRF-CEM": {"tested_on": "CCRF-CEM", "test": "NCI-60 one-dose SRB screen (Leukemia)", "format": "cell-based", "conditions": "Homo sapiens, single dose 10 µM, 48 h, read-out: Growth inhibition percent (GI %)", "method": "as §1, §2"}, "MOLT-4": {"tested_on": "MOLT-4", "test": "NCI-60 one-dose SRB screen (Leukemia)", "format": "cell-based", "conditions": "Homo sapiens, single dose 10 µM, 48 h, read-out: Growth inhibition percent (GI %)", "method": "as §1, §2"}, "SR": {"tested_on": "SR", "test": "NCI-60 one-dose SRB screen (Leukemia)", "format": "cell-based", "conditions": "Homo sapiens, single dose 10 µM, 48 h, read-out: Growth inhibition percent (GI %)", "method": "as §1, §2"}, "HL-60(TB)": {"tested_on": "HL-60(TB)", "test": "NCI-60 one-dose SRB screen (Leukemia)", "format": "cell-based", "conditions": "Homo sapiens, single dose 10 µM, 48 h, read-out: Growth inhibition percent (GI %)", "method": "as §1, §2"}, "K-562": {"tested_on": "K-562", "test": "NCI-60 one-dose SRB screen (Leukemia)", "format": "cell-based", "conditions": "Homo sapiens, K562, single dose 10 µM, 48 h, read-out: Growth inhibition percent (GI %)", "method": "as §1, §2"}}}
{"compound": "Cc1ccc(-c2nn(-c3ccc(S(N)(=O)=O)cc3)cc2C(=O)OCC(=O)Nc2ccc(S(N)(=O)=O)cc2)cc1", "note": "[Compound 4b, 2-Oxo-2-[(4-sulfamoylphenyl)amino] ethyl 1-(4-sulfamoylphenyl)-3-(p-tolyl)-1H-pyrazole-4-carboxylate]", "values": [{"measurement": "inhibition at 10 µM", "setting": "HCT-15", "result": "< 5", "unit": "%"}, {"measurement": "IC50", "setting": "hCA XII", "result": "0.17 ± 0.006", "unit": "µM"}, {"measurement": "inhibition at 10 µM", "setting": "HS 578T", "result": 6.42, "unit": "%"}, {"measurement": "inhibition at 10 µM", "setting": "MDA-MB-468", "result": 18.6, "unit": "%"}, {"measurement": "inhibition at 10 µM", "setting": "BT-549", "result": 6.7, "unit": "%"}, {"measurement": "inhibition at 10 µM", "setting": "MDA-MB-231/ATCC", "result": 6.64, "unit": "%"}, {"measurement": "inhibition at 10 µM", "setting": "MCF-7", "result": "< 5", "unit": "%"}, {"measurement": "inhibition at 10 µM", "setting": "T-47D", "result": 17.5, "unit": "%"}, {"measurement": "inhibition at 10 µM", "setting": "ACHN", "result": "< 5", "unit": "%"}, {"measurement": "inhibition at 10 µM", "setting": "CAKI-1", "result": 15.2, "unit": "%"}, {"measurement": "inhibition at 10 µM", "setting": "RXF 393", "result": "< 5", "unit": "%"}, {"measurement": "inhibition at 10 µM", "setting": "TK-10", "result": "< 5", "unit": "%"}, {"measurement": "inhibition at 10 µM", "setting": "786-0", "result": 9.87, "unit": "%"}, {"measurement": "inhibition at 10 µM", "setting": "UO-31", "result": 14.5, "unit": "%"}, {"measurement": "inhibition at 10 µM", "setting": "A498", "result": "< 5", "unit": "%"}, {"measurement": "inhibition at 10 µM", "setting": "DU-145", "result": "< 5", "unit": "%"}, {"measurement": "inhibition at 10 µM", "setting": "PC-3", "result": "< 5", "unit": "%"}, {"measurement": "inhibition at 10 µM", "setting": "OVCAR-8", "result": "< 5", "unit": "%"}, {"measurement": "inhibition at 10 µM", "setting": "NCI/ADR-RES", "result": "< 5", "unit": "%"}, {"measurement": "inhibition at 10 µM", "setting": "SK-OV-3", "result": "< 5", "unit": "%"}, {"measurement": "inhibition at 10 µM", "setting": "OVCAR-5", "result": 5.99, "unit": "%"}, {"measurement": "inhibition at 10 µM", "setting": "IGROV1", "result": "< 5", "unit": "%"}, {"measurement": "inhibition at 10 µM", "setting": "OVCAR-3", "result": "< 5", "unit": "%"}, {"measurement": "inhibition at 10 µM", "setting": "OVCAR-4", "result": "< 5", "unit": "%"}, {"measurement": "inhibition at 10 µM", "setting": "RPMI-8226", "result": "< 5", "unit": "%"}, {"measurement": "inhibition at 10 µM", "setting": "CCRF-CEM", "result": "< 5", "unit": "%"}, {"measurement": "inhibition at 10 µM", "setting": "MOLT-4", "result": "< 5", "unit": "%"}, {"measurement": "inhibition at 10 µM", "setting": "SR", "result": 30.2, "unit": "%"}, {"measurement": "inhibition at 10 µM", "setting": "HL-60(TB)", "result": 5.09, "unit": "%"}, {"measurement": "inhibition at 10 µM", "setting": "K-562", "result": 7.16, "unit": "%"}]}
